Laboratory results taken from US9963461B2, “Phillygenin ibuprofen ester, preparation method therefor, and application thereof” (priority 2014, dated 2018).
Like-named read-outs stand apart in the source and are kept apart here. Marks after values point to notes of the source that are not given here.

Key:
influenza virus [1] = assay: Impact of the drugs on the virus-induced cytopathy (MTT); format: cell-based
parainfluenza virus [2] = assay: as above; format: cell-based; settings: parainfluenza virus 100 TCID50, Vero cells, about the maximal non-cytotoxic concentration, 72 hours
[3] = test system: Coxsackie virus A16 (CoxA16); assay: as above; format: cell-based; settings: CoxA16 100 TCID50, Vero cells, about the maximal non-cytotoxic concentration, 72 hours
[4] = test system: respiratory syncytial virus (RSV); assay: as above; format: cell-based; settings: RSV 100 TCID50, Vero cells, about the maximal non-cytotoxic concentration, 72 hours
[5] = test system: Herpes Simplex Virus type I (HSV-1); assay: as above; format: cell-based; settings: HSV-I 100 TCID50, Vero cells, about the maximal non-cytotoxic concentration, 72 hours
Adenovirus (AdV) = assay: as above; format: cell-based; settings: ADV 100 TCID50, Vero cells, about the maximal non-cytotoxic concentration, 72 hours
Enterovirus EV71 = assay: as above; format: cell-based; settings: EV71 100 TCID50, Vero cells, about the maximal non-cytotoxic concentration, 72 hours
[6] = test system: coxsackie virus B3 (CVB3); assay: as above; format: cell-based; settings: CVB3 100 TCID50, Vero cells, about the maximal non-cytotoxic concentration, 72 hours
influenza virus [7] = format: in vivo, Kunming mice; settings: influenza virus infected mice; 19.5 mg/kg/d intragastric, 5 days
parainfluenza virus [8] = format: in vivo, Kunming mice; settings: parainfluenza virus infected mice; 19.5 mg/kg/d intragastric, 5 days
influenza virus [9] = format: in vivo, Kunming mice; settings: lung suspensions, influenza virus infected mice, 5 days
parainfluenza virus [10] = format: in vivo, Kunming mice; settings: lung suspensions, parainfluenza virus infected mice, 5 days
Vero cell = assay: Cytotoxicity test on Vero cell (MTT); settings: 72 hours

SMILES: CCOC(=O)C1=C[C@@H](OC(CC)CC)[C@H](NC(C)=O)[C@@H](N)C1 [Oseltamivir phosphate, oseltamivir phosphate]
- antiviral effective rate (ER %) (influenza virus [1]; influenza virus 100 TCID50, Vero cells, about the maximal non-cytotoxic concentration, 72 hours): 81.76** %
- antiviral effective rate (ER %) (parainfluenza virus [2]): 94.52** %
- antiviral effective rate (ER %) [3]: 2.95%
- antiviral effective rate (ER %) [4]: 37.60%
- antiviral effective rate (ER %) [5]: 66.56** %
- antiviral effective rate (ER %) (Adenovirus (AdV)): 10.31%
- antiviral effective rate (ER %) (Enterovirus EV71): 51.86%
- antiviral effective rate (ER %) [6]: 1.64%
- Lung index (X ± S) (influenza virus [7]): 1.178 ± 0.066
- Lung index Inhibitive rate (%) (influenza virus [7]): 19.84%
- Lung index (X ± S) (parainfluenza virus [8]): 1.243 ± 0.052
- Lung index Inhibitive rate (%) (parainfluenza virus [8]): 21.85%
- Hemagglutination titer (InX) (influenza virus [9]; 19.5 mg/kg/d): 20.50 ± 1.122
- Hemagglutination titer Inhibitive rate (%) (influenza virus [9]; 19.5 mg/kg/d): 36.73%
- Hemagglutination titer (InX) (parainfluenza virus [10]; 19.5 mg/kg/d): 22.05 ± 1.055
- Hemagglutination titer Inhibitive rate (%) (parainfluenza virus [10]; 19.5 mg/kg/d): 33.44%
- Median toxic concentration (TC50) (Vero cell): 832 µg/mL
- maximal non-toxic concentration (TC0) (Vero cell): 0.28 g/L

SMILES: NC(=O)c1ncn([C@@H]2O[C@H](CO)[C@@H](O)[C@H]2O)n1 [Ribavirin, ribavirin]
- antiviral effective rate (ER %) (influenza virus [1]): 57.49* %
- antiviral effective rate (ER %) (parainfluenza virus [2]): 81.56** %
- antiviral effective rate (ER %) [3]: 0.70%
- antiviral effective rate (ER %) [4]: 50.08* %
- antiviral effective rate (ER %) [5]: 60.92* %
- antiviral effective rate (ER %) (Adenovirus (AdV)): 0.43%
- antiviral effective rate (ER %) (Enterovirus EV71): 4.25%
- antiviral effective rate (ER %) [6]: 13.44%
- Hemagglutination titer (InX) (influenza virus [9]; 58.5 mg/kg/d): 21.91 ± 1.050
- Hemagglutination titer Inhibitive rate (%) (influenza virus [9]; 58.5 mg/kg/d): 32.39%
- Hemagglutination titer (InX) (parainfluenza virus [10]; 58.5 mg/kg/d): 23.22 ± 1.091
- Hemagglutination titer Inhibitive rate (%) (parainfluenza virus [10]; 58.5 mg/kg/d): 24.53%
